From US11912701B2, “Protein kinase inhibitors for promoting liver regeneration or reducing or preventing hepatocyte death” (HEPAREGENIX GMBH, priority 2018, dated 2024)

Tests used:
[1] = target: T1, MKK7 (Homo sapiens, UniProt O14733); experiment: 33PanQinase enzyme assay, MKK7; format: biochemical; design: purchased ProQinase GmbH, Freiburg, Germany (33PanQinase Assay Service); conditions: ratio IC50(MKK7)/IC50(MKK4)
T1 sequence (O14733 1-419): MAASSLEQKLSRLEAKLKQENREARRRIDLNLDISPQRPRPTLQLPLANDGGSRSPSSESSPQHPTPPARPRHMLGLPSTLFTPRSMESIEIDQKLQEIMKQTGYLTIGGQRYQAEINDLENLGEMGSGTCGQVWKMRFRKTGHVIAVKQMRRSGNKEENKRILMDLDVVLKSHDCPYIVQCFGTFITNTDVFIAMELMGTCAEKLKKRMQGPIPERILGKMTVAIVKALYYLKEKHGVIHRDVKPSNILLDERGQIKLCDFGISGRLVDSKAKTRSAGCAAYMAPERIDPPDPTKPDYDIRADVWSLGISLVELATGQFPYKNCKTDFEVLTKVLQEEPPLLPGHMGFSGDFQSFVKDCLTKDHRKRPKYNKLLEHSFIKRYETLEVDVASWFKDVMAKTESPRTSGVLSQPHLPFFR
Procedure, shortened: (§1)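 Radiometric 33PanQinase format: kinase with substrate, ATP and compound (added in 10% DMSO stock) incubated 60 min at 30° C, stopped with 2% H3PO4, ^33Pi incorporation counted by scintillation. Single-concentration data given as % residual activity; IC50 by least-squares fit, with selectivity as IC50(off-target)/IC50(MKK4).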

[2] = target: T2, MKK4 (Homo sapiens, UniProt P45985); experiment: 33PanQinase enzyme assay, MKK4; format: biochemical; conditions: assay 'IC50'; read-out: Potency MKK4 (IC50)
T2 construct: purchased ProQinase GmbH, Freiburg, Germany (33PanQinase Assay Service)
T2 sequence (P45985 1-399): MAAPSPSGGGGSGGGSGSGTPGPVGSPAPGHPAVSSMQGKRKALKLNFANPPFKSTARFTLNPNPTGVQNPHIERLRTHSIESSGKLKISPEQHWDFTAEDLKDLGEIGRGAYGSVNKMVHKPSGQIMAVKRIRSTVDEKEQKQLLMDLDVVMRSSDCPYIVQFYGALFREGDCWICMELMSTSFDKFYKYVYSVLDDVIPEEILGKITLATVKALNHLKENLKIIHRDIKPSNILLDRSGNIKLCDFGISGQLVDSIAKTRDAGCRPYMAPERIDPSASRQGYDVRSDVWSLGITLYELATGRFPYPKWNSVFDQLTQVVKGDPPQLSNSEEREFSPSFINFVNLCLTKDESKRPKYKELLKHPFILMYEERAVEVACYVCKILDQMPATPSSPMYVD
Procedure, shortened: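 Radiometric 33PanQinase assay: kinase, substrate, ATP and compound in standard buffer, 60 min at 30 °C; 33Pi incorporation read by scintillation counting.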

[3] = target: T3, MKK4 (Homo sapiens, UniProt P45985); experiment: KINOMEscan competition binding assay, MKK4; conditions: residual percent of control binding (PoC) at 100 nM
T3 construct: S84/D399; host or cells: HEK-293
T3 sequence (P45985 84-399): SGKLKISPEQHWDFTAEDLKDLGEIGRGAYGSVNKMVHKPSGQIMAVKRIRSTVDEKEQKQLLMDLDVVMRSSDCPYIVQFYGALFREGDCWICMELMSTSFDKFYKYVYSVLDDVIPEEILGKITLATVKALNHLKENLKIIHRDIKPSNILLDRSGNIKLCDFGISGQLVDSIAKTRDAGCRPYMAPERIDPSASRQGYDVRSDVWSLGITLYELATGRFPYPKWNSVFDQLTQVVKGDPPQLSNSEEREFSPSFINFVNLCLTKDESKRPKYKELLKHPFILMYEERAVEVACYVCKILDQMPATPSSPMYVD
Procedure, shortened: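 KINOMEscan competition of compound versus immobilized ligand for DNA-tagged MKK4 expressed in HEK-293 cells. Bound kinase was quantified by qPCR after elution.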

[4] = target: T4, JNK1 (Homo sapiens, UniProt P45983); experiment: 33PanQinase enzyme assay, JNK1; format: biochemical; design: purchased ProQinase GmbH, Freiburg, Germany (33PanQinase Assay Service); conditions: ratio IC50(JNK1)/IC50(MKK4)
Procedure, shortened: as §1
Target sequence in this assay (P45983 whole entry): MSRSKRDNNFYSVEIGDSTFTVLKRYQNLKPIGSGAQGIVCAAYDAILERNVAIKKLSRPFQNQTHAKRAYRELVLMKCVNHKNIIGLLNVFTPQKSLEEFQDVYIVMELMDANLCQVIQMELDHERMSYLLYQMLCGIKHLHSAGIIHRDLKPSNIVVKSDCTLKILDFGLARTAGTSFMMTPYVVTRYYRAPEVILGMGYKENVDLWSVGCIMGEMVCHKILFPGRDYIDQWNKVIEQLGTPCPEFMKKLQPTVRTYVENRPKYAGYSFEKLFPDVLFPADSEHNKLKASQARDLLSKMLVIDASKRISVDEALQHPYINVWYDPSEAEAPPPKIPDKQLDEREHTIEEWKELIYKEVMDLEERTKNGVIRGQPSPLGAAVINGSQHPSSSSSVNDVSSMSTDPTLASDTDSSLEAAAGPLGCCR

[5] = target: T5, BRaf (Homo sapiens, UniProt P15056); experiment: 33PanQinase enzyme assay, BRaf; format: biochemical; conditions: ratio IC50(BRaf)/IC50(MKK4)
T5 construct: purchased ProQinase GmbH, Freiburg, Germany (33PanQinase Assay Service)
T5 sequence (P15056 whole entry, species assumed): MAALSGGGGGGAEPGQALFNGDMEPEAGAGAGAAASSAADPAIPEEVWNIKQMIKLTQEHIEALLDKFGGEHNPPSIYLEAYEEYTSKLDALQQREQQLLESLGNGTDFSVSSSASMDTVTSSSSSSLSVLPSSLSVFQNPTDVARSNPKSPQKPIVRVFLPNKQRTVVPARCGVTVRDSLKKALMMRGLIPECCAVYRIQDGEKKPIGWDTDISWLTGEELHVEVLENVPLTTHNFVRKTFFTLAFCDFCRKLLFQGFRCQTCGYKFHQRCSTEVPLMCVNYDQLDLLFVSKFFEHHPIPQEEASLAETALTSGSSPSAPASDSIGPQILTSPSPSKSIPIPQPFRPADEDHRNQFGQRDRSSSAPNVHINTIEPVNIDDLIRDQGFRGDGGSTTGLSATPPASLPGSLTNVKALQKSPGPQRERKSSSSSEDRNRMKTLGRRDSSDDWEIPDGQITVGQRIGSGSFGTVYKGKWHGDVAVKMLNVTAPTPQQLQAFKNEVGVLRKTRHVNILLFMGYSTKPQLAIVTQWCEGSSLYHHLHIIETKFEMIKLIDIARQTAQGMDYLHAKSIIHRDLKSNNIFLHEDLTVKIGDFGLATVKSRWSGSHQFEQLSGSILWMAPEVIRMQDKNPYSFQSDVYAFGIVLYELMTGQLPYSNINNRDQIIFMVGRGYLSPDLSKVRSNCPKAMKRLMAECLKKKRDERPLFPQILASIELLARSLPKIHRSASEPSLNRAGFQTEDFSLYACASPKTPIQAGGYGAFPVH
Procedure, shortened: as §1

[6] = target: T4, JNK1; experiment: KINOMEscan competition binding assay, JNK1; design: M1/Q384; host or cells: HEK-293; conditions: ratio PoC (off-target)/PoC (MKK4)
Procedure, shortened: (§2)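 DNA-tagged kinases expressed in HEK-293 cells compete between immobilized ligand on blocked beads and test compound at 100 nM; kinase retained on beads quantified by qPCR of the tag.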
Target sequence in this assay (P45983 1-384 isoform P45983-2): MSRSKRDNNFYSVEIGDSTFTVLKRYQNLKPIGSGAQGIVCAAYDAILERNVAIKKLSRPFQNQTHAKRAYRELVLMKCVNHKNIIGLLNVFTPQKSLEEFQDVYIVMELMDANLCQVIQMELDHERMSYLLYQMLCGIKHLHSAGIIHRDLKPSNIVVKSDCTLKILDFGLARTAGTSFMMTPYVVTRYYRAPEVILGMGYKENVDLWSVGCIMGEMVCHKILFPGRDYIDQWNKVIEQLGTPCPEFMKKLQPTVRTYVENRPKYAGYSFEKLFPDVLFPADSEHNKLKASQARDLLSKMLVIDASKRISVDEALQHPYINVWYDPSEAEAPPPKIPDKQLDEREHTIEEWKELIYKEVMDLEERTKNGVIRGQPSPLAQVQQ

[7] = target: T5, BRaf; experiment: KINOMEscan competition binding assay, BRaf; conditions: ratio PoC (off-target)/PoC (MKK4)
Procedure, shortened: as §2

[8] = target: T1, MKK7; experiment: KINOMEscan competition binding assay, MKK7; design: M1/R419; host or cells: HEK-293; conditions: ratio PoC (off-target)/PoC (MKK4)
Procedure, shortened: as §2

SMILES	Selectivity IVIKK7, IC50(off-target)/IC50(MKK4) [1]	IC50 [2]	MKK4 [% Ctrl @ 100 nM [3]	Selectivity JNK1, IC50(off-target)/IC50(MKK4) [4]	Selectivity Braf, IC50(off-target)/IC50(MKK4) [5]	selectivity based on % Ctrl @100 nM vs. JNK1 [6]	selectivity based on % Ctrl @100 nM vs. Braf [7]	selectivity based on % Ctrl @100 nM vs. MKK7 [8]
CCCS(=O)(=O)Nc1ccc(F)c(C(=O)c2c[nH]c3ncc(-c4ccccc4OC)cc23)c1F [Example 102, N-(2,4-difluoro-3-(5-(2-methoxyphenyl)-1H-pyrrolo[2,3-b]pyridine-3-carbonyl)phenyl)propane-1-sulfonamide]	+++ (IC50(off-target)/IC50(MKK4) > 100)	100 to 1000 nM	++ (1 ≤ PoC < 3)	+ (10 ≥ IC50(off-target)/IC50(MKK4) > 3)	◯ (3 ≥ IC50(off-target)/IC50(MKK4))	++ (100 ≥ ratio > 10)	++ (100 ≥ ratio > 10)	++ (100 ≥ ratio > 10)
CCCS(=O)(=O)Nc1ccc(F)c(C(=O)c2c[nH]c3ncc(-c4ccc(C5CCC5)cc4)cc23)c1F [Example 82, N-(3-(5-(4-cyclobutylphenyl)-1H-pyrrolo[2,3-b]pyridine-3-carbonyl)-2,4-difluorophenyl)propane-1-sulfonamide]	+++ (IC50(off-target)/IC50(MKK4) > 100)	100 to 1000 nM	+++ (PoC < 1)	+ (10 ≥ IC50(off-target)/IC50(MKK4) > 3)	◯ (3 ≥ IC50(off-target)/IC50(MKK4))	+++ (Ratio > 100)	+++ (Ratio > 100)	+++ (Ratio > 100)
O=C(c1cccc(NS(=O)(=O)Cc2ccccc2)c1F)c1c[nH]c2ncc(-c3cc4c(cc3Cl)OCO4)cc12 [Example 128, N-(3-(5-(6-chlorobenzo[d][1,3]dioxol-5-yl)-1H-pyrrolo[2,3-b]pyridine-3-carbonyl)-2-fluorophenyl)-1-phenylmethanesulfonamide]	+++ (IC50(off-target)/IC50(MKK4) > 100)	100 to 1000 nM	++ (1 ≤ PoC < 3)	+ (10 ≥ IC50(off-target)/IC50(MKK4) > 3)	+++ (IC50(off-target)/IC50(MKK4) > 100)	++ (100 ≥ ratio > 10)	++ (100 ≥ ratio > 10)	++ (100 ≥ ratio > 10)
CCCS(=O)(=O)Nc1ccc(F)c(C(=O)c2c[nH]c3ncc(-c4ccc([N+](=O)[O-])cc4)cc23)c1F [Example 107, N-(2,4-difluoro-3-(5-(4-nitrophenyl)-1H-pyrrolo[2,3-b]pyridine-3-carbonyl)phenyl)propane-1-sulfonamide]	+++ (IC50(off-target)/IC50(MKK4) > 100)	100 to 1000 nM	+ (3 ≤ PoC < 30)	+ (10 ≥ IC50(off-target)/IC50(MKK4) > 3)	◯ (3 ≥ IC50(off-target)/IC50(MKK4))	++ (100 ≥ ratio > 10)	+ (10 ≥ ratio > 3)	++ (100 ≥ ratio > 10)
O=C(c1c(F)ccc(NS(=O)(=O)CCC(F)(F)F)c1F)c1c[nH]c2ncc(-c3ccc(N4CCOCC4)nc3)cc12 [Example 79, N-(2,4-difluoro-3-(5-(6-morpholinopyridin-3-yl)-1H-pyrrolo[2,3-b]pyridine-3-carbonyl)phenyl)-3,3,3-trifluoropropane-1-sulfonamide]	+++ (IC50(off-target)/IC50(MKK4) > 100)	< 100 nM	+++ (PoC < 1)	++ (100 ≥ IC50(off-target)/IC50(MKK4) > 10)	+ (10 ≥ IC50(off-target)/IC50(MKK4) > 3)	+++ (Ratio > 100)	+++ (Ratio > 100)	+++ (Ratio > 100)
CCCS(=O)(=O)Nc1ccc(F)c(C(=O)c2c[nH]c3ncc(-c4ccc(C(N)=O)cc4)cc23)c1F [Example 109, 4-(3-(2,6-difluoro-3-(propylsulfonamido)benzoyl)-1H-pyrrolo[2,3-b]pyridin-5-yl)benzamide]	+++ (IC50(off-target)/IC50(MKK4) > 100)	100 to 1000 nM	+++ (PoC < 1)	+ (10 ≥ IC50(off-target)/IC50(MKK4) > 3)	◯ (3 ≥ IC50(off-target)/IC50(MKK4))	+++ (Ratio > 100)	+ (10 ≥ ratio > 3)	+++ (Ratio > 100)
CCCS(=O)(=O)Nc1c(F)ccc(C(=O)c2c[nH]c3ncc(-c4ccc(C)nc4)cc23)c1F [Example 229, N-(2,6-difluoro-3-(5-(6-methylpyridin-3-yl)-1H-pyrrolo[2,3-b]pyridine-3-carbonyl)phenyl)propane-1-sulfonamide]	+++ (IC50(off-target)/IC50(MKK4) > 100)	< 100 nM	+++ (PoC < 1)	+++ (IC50(off-target)/IC50(MKK4) > 100)	+++ (IC50(off-target)/IC50(MKK4) > 100)	+++ (Ratio > 100)	+++ (Ratio > 100)	+++ (Ratio > 100)
